Reference: patent publication US12473289B2, “Heterocyclic compounds as delta-5 desaturase inhibitors and methods of use” (Amgen Inc., priority 2019, dated 2025)

molecular target: Delta-5-Desaturase (D5D) (Homo sapiens (Human), UniProt O60427); test: In vitro measurement of Delta-5-Desaturase inhibitory activity using DGLA-CoA and Arachidonyl-CoA mass spectrometric assays; assay type: biochemical; conditions: membrane preparations of D5D-overexpressing HEK293 6E cells; averaged over at least two independent runs
Sequence (O60427 whole entry, species assumed): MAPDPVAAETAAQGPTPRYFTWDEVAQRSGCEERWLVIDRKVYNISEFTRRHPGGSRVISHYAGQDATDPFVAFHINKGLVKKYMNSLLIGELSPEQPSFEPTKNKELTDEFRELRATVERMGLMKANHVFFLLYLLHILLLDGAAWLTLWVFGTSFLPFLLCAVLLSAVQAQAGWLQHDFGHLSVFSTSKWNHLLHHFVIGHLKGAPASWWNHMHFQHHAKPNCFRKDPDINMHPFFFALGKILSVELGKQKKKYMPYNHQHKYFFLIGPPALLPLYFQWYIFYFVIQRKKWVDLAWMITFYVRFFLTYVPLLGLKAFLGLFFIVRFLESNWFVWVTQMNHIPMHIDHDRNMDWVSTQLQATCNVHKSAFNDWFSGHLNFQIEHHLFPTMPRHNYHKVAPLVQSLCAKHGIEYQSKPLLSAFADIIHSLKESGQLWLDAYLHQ
In short: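 DGLA-CoA and arachidonyl-CoA were read by RapidFire SPE triple-quad MS (negative mode, MRM) after a 1 h ambient-temperature reaction quenched with acetonitrile. Enzyme was D5D-overexpressing HEK293 6E membranes at 10 μg/mL final; substrate solution held 0.01 mM DGLA plus NADH, ATP and CoA. Inhibition was referenced to DMSO and no-enzyme wells; 4PL IC50.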

First: O=c1c(-c2cnn(CC(F)(F)C(F)(F)F)c2)c(C(F)(F)F)nc2n1CCOC2 [Example 39-34, 3-[1-(2,2,3,3,3-pentafluoropropyl)-1H-pyrazol-4-yl]-2-(trifluoromethyl)-4H,6R,7H,9H-pyrimido[2,1-c][1,4]oxazin-4-one]
Second: Cc1nccn2c(=O)c(-c3cnn(CC(F)(F)C(F)(F)F)c3)c(C(F)(F)F)nc12 [Example 39-41, 9-methyl-3-[1-(2,2,3,3,3-pentafluoropropyl)-1H-pyrazol-4-yl]-2-(trifluoromethyl)-4H-pyrazino[1,2-a]pyrimidin-4-one]
The IC50 of the first is 2.2-fold lower: 30.2 nM for the first, 65.1 nM for the second. The first is the more potent here.

Compared with `CSc1ccn2c(=O)c(-c3cnn(CC(F)(F)C(F)(F)F)c3)c(C(F)(F)F)nc2c1` [Example 1-30, 8-(methylsulfanyl)-3-(1-(2,2,3,3,3-pentafluoropropyl)-1H-pyrazol-4-yl)-2-(trifluoromethyl)-4H-pyrido[1,2-a]pyrimidin-4-one], `CC(=O)Nc1ccn2c(=O)c(-c3cnn(CC(F)(F)C(F)(F)F)c3)c(C(F)(F)F)nc2c1` [Example 1-82, N-(4-oxo-3-(1-(2,2,3,3,3-pentafluoropropyl)-1H-pyrazol-4-yl)-2-(trifluoromethyl)-4H-pyrido[1,2-a]pyrimidin-8-yl)acetamide] is 3-fold higher in IC50: 18.8 nM for the first, 56 nM for the second.

Going from `COc1ccn2c(=O)c(-c3ccc(CC#N)cc3)c(C(F)(F)F)nc2c1` [Example 1-2, (4-(8-methoxy-4-oxo-2-(trifluoromethyl)-4H-pyrido[1,2-a]pyrimidin-3-yl)phenyl)acetonitrile] to `COc1ccn2c(=O)c(-c3ccc(OC(F)F)cc3)c(C(F)(F)F)nc2c1` [Example 1-54, 3-(4-(difluoromethoxy)phenyl)-8-methoxy-2-(trifluoromethyl)-4H-pyrido[1,2-a]pyrimidin-4-one], the IC50 falls from 305 nM to 6.6 nM (46-fold).

First: O=c1c(-c2cnn(CCC(F)(F)F)c2)c(C(F)(F)F)nc2ccc(Cl)cn12 [Example 39-17, 7-chloro-2-(trifluoromethyl)-3-[1-(3,3,3-trifluoropropyl)-1H-pyrazol-4-yl]-4H-pyrido[1,2-a]pyrimidin-4-one]
Second: COc1cc2nc(C(F)(F)F)c(-c3cnn(CCC(F)(F)F)c3)c(=O)n2cc1F [Example 39-58, 7-fluoro-8-methoxy-2-(trifluoromethyl)-3-[1-(3,3,3-trifluoropropyl)-1H-pyrazol-4-yl]-4H-pyrido[1,2-a]pyrimidin-4-one]
The IC50 of the first is 8.5-fold lower: 2.4 nM for the first, 20.4 nM for the second. The first is the more potent here.

Compared with `O=C(O)c1ccn2c(=O)c(-c3ccc(OCC(F)(F)F)cc3)c(C(F)(F)F)nc2c1` [Example 2-2, 4-oxo-3-(4-(2,2,2-trifluoroethoxy)phenyl)-2-(trifluoromethyl)-4H-pyrido[1,2-a]pyrimidine-8-carboxylic acid], `C=Cc1ccn2c(=O)c(-c3ccc(OCC(F)(F)F)cc3)c(C(F)(F)F)nc2c1` [Example 2-8, 8-ethenyl-3-(4-(2,2,2-trifluoroethoxy)phenyl)-2-(trifluoromethyl)-4H-pyrido[1,2-a]pyrimidin-4-one] is 25-fold lower in IC50: 646 nM for the first, 25.4 nM for the second.

Going from `COc1ccn2c(=O)c(-c3cc(CC(F)(F)C(F)(F)F)no3)c(C(F)(F)F)nc2c1` [Example 60, 8-Methoxy-3-[3-(2,2,3,3,3-pentafluoropropyl)-1,2-oxazol-5-yl]-2-(trifluoromethyl)-4H-pyrido[1,2-a]pyrimidin-4-one] to `COc1ccn2c(=O)c(-c3cn(CC(F)(F)C(F)(F)F)nn3)c(C(F)(F)F)nc2c1` [Example 53, 8-Methoxy-3-[1-(2,2,3,3,3-pentafluoropropyl)-1H-1,2,3-triazol-4-yl]-2-(trifluoromethyl)-4H-pyrido[1,2-a]pyrimidin-4-one], the IC50 falls from 74.9 nM to 44.7 nM (1.7-fold).

First: COc1ccn2c(=O)c(-c3ncc(CCC(F)(F)F)s3)c(C(F)(F)F)nc2c1 [Example 58, 8-Methoxy-2-(trifluoromethyl)-3-[5-(3,3,3-trifluoropropyl)-1,3-thiazol-2-yl]-4H-pyrido[1,2-a]pyrimidin-4-one]
Second: COc1ccn2c(=O)c(-c3ncc(OCC(F)(F)F)s3)c(C(F)(F)F)nc2c1 [Example 57, 8-methoxy-3-[5-(2,2,2-trifluoroethoxy)-1,3-thiazol-2-yl]-2-(trifluoromethyl)-4H-pyrido[1,2-a]pyrimidin-4-one]
The IC50 of the first is 1.9-fold lower: 594 nM for the first, 1150 nM for the second.

First: Cc1cc2nc(C(F)(F)F)c(-c3ccc(OCC(F)(F)F)cc3)c(=O)n2cc1Cl [Example 41-3, 7-chloro-8-methyl-3-[4-(2,2,2-trifluoroethoxy)phenyl]-2-(trifluoromethyl)-4H-pyrido[1,2-a]pyrimidin-4-one]
Second: C[S@@+]([O-])c1ccn2c(=O)c(-c3ccc(OCC(F)(F)F)cc3)c(C(F)(F)F)nc2c1 [Example 15-2, 8-((R)-methylsulfinyl)-3-(4-(2,2,2-trifluoroethoxy)phenyl)-2-(trifluoromethyl)-4H-pyrido[1,2-a]pyrimidin-4-one]
The IC50 of the first is 2.3-fold lower: 241 nM for the first, 562 nM for the second.

`N#CCc1ccn2c(=O)c(-c3cnn(CC(F)(F)C(F)(F)F)c3)c(C(F)(F)F)nc2c1` [Example 16-1, (4-Oxo-3-(1-(2,2,3,3,3-pentafluoropropyl)-1H-pyrazol-4-yl)-2-(trifluoromethyl)-4H-pyrido[1,2-a]pyrimidin-8-yl)acetonitrile] and `Cc1cnn2c(=O)c(-c3cnn(CC(F)(F)C(F)(F)F)c3)c(C(F)(F)F)nc2c1` [Example 39-40, 8-methyl-3-[1-(2,2,3,3,3-pentafluoropropyl)-1H-pyrazol-4-yl]-2-(trifluoromethyl)-4H-pyrimido[1,2-b]pyridazin-4-one] are within 1.5-fold of each other in IC50: 52.4 nM for the first, 67 nM for the second.

`COc1ccn2c(=O)c(-c3ccc(OCC(F)(F)C(F)(F)F)cc3)c(C(F)(F)F)nc2c1` [Example 22, 8-Methoxy-3-(4-(2,2,3,3,3-pentafluoropropoxy)phenyl)-2-(trifluoromethyl)-4H-pyrido[1,2-a]pyrimidin-4-one] and `[2H]C([2H])([2H])c1ccn2c(=O)c(-c3ccc(OCC(F)(F)F)cc3)c(C(F)(F)F)nc2c1` [Example 2-5, 8-(methyl-d3)-3-(4-(2,2,2-trifluoroethoxy)phenyl)-2-(trifluoromethyl)-4H-pyrido[1,2-a]pyrimidin-4-one] are within 1.5-fold of each other in IC50: 4 nM for the first, 3.9 nM for the second.

Compared with `O=c1c(-c2cnn(CC(F)(F)C(F)(F)F)c2)c(C(F)(F)F)nc2cc(OCCl)cnn12` [Example 48, 8-(Chloromethoxy)-3-[1-(2,2,3,3,3-pentafluoropropyl)-1H-pyrazol-4-yl]-2-(trifluoromethyl)-4H-pyrimido[1,2-b]pyridazin-4-one], `O=c1c(-c2cnn(CC(F)(F)C(F)(F)F)c2)c(C(F)(F)F)nc2cc(O)cnn12` [Example 44, 8-Hydroxy-3-[1-(2,2,3,3,3-pentafluoropropyl)-1H-pyrazol-4-yl]-2-(trifluoromethyl)-4H-pyrimido[1,2-b]pyridazin-4-one] is 15-fold higher in IC50: 119 nM for the first, 1810 nM for the second. The first is the more potent here.

`[2H]C([2H])([2H])Oc1ccn2c(=O)c(-c3cnn(CCCC(F)(F)F)c3)c(C(F)(F)F)nc2c1` [Example 1-63, 8-(methyloxy-d3)-3-(1-(4,4,4-trifluorobutyl)-1H-pyrazol-4-yl)-2-(trifluoromethyl)-4H-pyrido[1,2-a]pyrimidin-4-one] and `[2H]C([2H])([2H])Oc1ccn2c(=O)c(-c3ccc(OCC(F)(F)F)nc3)c(C(F)(F)F)nc2c1` [Example 1-64, 8-(methyloxy-d3)-3-(6-(2,2,2-trifluoroethoxy)-3-pyridinyl)-2-(trifluoromethyl)-4H-pyrido[1,2-a]pyrimidin-4-one] are within 1.5-fold of each other in IC50: 28.1 nM for the first, 21.5 nM for the second.

Compared with `CCCc1cc(-c2c(C(F)(F)F)nc3cc(OC)ccn3c2=O)no1` [Example 61, 8-Methoxy-3-(5-propyl-1,2-oxazol-3-yl)-2-(trifluoromethyl)-4H-pyrido[1,2-a]pyrimidin-4-one], `COc1ccn2c(=O)c(-c3cnn(CCC#N)c3)c(C(F)(F)F)nc2c1` [Example 1-24, 3-(4-(8-methoxy-4-oxo-2-(trifluoromethyl)-4H-pyrido[1,2-a]pyrimidin-3-yl)-1H-pyrazol-1-yl)propanenitrile] is 18-fold higher in IC50: 46.9 nM for the first, 833 nM for the second.

Going from `Cc1cc2nc(C(F)(F)F)c(-c3cnn(CC(F)(F)C(F)(F)F)c3)c(=O)n2nc1C` [Example 39-46, 7,8-dimethyl-3-[1-(2,2,3,3,3-pentafluoropropyl)-1H-pyrazol-4-yl]-2-(trifluoromethyl)-4H-pyrimido[1,2-b]pyridazin-4-one] to `COc1cc(C)n2c(=O)c(-c3cnn(CC(F)(F)C(F)(F)F)c3)c(C(F)(F)F)nc2c1` [Example 39-8, 8-methoxy-6-methyl-3-[1-(2,2,3,3,3-pentafluoropropyl)-1H-pyrazol-4-yl]-2-(trifluoromethyl)-4H-pyrido[1,2-a]pyrimidin-4-one], the IC50 falls from 6770 nM to 1350 nM (5-fold). The second is the more potent here.

Going from `COc1ccn2c(=O)c(-c3cnc(-c4ccccc4)o3)c(C(F)(F)F)nc2c1` [Example 1-6, 8-methoxy-3-(2-phenyl-1,3-oxazol-5-yl)-2-(trifluoromethyl)-4H-pyrido[1,2-a]pyrimidin-4-one] to `CS(=O)(=O)c1ccn2c(=O)c(-c3ccc(OCC(F)(F)F)cc3)c(C(F)(F)F)nc2c1` [Example 19, 8-(Methylsulfonyl)-3-(4-(2,2,2-trifluoroethoxy)phenyl)-2-(trifluoromethyl)-4H-pyrido[1,2-a]pyrimidin-4-one], the IC50 rises from 110 nM to 10100 nM (92-fold). The first is the more potent here.

First: Cc1ccn2c(=O)c(-c3noc(CCC(F)(F)F)n3)c(C(F)(F)F)nc2c1 [Example 50, 8-Methyl-2-(trifluoromethyl)-3-[5-(3,3,3-trifluoropropyl)-1,2,4-oxadiazol-3-yl]-4H-pyrido[1,2-a]pyrimidin-4-one]
Second: COc1cc2nc(C(F)(F)F)c(-c3cnn(C[C@H]4CC4(F)F)c3)c(=O)n2cc1F [Example 71, 3-(1-(((1R)-2,2-difluorocyclopropyl)methyl)-1H-pyrazol-4-yl)-7-fluoro-8-methoxy-2-(trifluoromethyl)-4H-pyrido[1,2-a]pyrimidin-4-one]
The IC50 of the first is 170-fold higher: 5380 nM for the first, 31.7 nM for the second. The second is the more potent here.

`O=c1c(-c2cnn(C3CC3)c2)c(C(F)(F)F)nc2ccccn12` [Example 5-3, 3-(1-cyclopropyl-1H-pyrazol-4-yl)-2-(trifluoromethyl)-4H-pyrido[1,2-a]pyrimidin-4-one] gave an IC50 of 5190 nM.
